According to article PMC11597207, “Synthesis and Anti-Inflammatory and Analgesic Potentials of Ethyl 2-(2,5-Dioxo-1-Phenylpyrrolidin-3-yl)-2-Methylpropanoate” (Pharmaceuticals, 2024):

Biological target: T1, COX-2 (Homo sapiens, UniProt P35354)
T1 construct: purchased Cayman Chemical Batch No.: G5234
T1 sequence (P35354 18-604): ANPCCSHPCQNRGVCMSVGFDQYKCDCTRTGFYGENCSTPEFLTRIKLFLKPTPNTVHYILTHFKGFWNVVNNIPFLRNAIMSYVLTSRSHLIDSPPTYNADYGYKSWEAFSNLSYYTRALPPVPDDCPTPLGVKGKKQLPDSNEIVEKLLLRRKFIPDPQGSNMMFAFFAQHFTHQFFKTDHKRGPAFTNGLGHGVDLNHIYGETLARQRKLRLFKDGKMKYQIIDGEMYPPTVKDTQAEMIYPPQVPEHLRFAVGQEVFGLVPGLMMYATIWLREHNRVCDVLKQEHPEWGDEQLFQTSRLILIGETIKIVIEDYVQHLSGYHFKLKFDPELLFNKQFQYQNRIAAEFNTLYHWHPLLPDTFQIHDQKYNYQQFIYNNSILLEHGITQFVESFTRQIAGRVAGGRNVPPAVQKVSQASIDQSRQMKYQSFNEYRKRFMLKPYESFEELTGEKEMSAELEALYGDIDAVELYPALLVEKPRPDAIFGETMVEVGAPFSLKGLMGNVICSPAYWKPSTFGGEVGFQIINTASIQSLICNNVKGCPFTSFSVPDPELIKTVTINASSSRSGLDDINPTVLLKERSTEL
Experiment: COX-2 inhibitory assay
Format: biochemical
Procedure: The inhibitory potential of synthesized MAK01 was assessed using the COX-2 inhibitory protocol. The process started with the preparation of a COX-2 enzyme solution with a concentration of 300 U per ml. The activation of the enzymes was achieved by taking and mixing 10 μL and 50 μL of the COX-2 enzyme solution and a co-factor solution, respectively. Once mixed, this solution needed to be chilled. The chilling process was carried out at 4 °C in an ice bath. The duration for this cooling phase was set at five to six minutes. […] It was made up of 0.1 M Tris buffer with a pH of 8.0, 1 mM of hematin, 0.9 mM of glutathione, and 0.24 mM of TMPD in a phosphate buffer. Following the initial steps, a test sample was prepared. The volume of this sample was fixed at 20 μL. The 20 μL sample was mixed with 60 μL COX-2 solution. After combining them, the sample and enzyme solution were kept at ambient temperature. The solution was allowed to rest for a duration from five to ten minutes. To start the reaction, 20 μL of 30 mM arachidonic acid was incorporated. Upon adding the acid, the solution was subjected to an incubation period. This period lasted for 15 min at a temperature of 37 °C. Post incubation, HCl was added to stop the reaction. The absorbance of this final solution was then measured. This was carried out using a UV–visible spectrophotometer at a specific 570 nm wavelength. Similarly, the above procedure was used for all the other concentrations of the test sample. The COX-2 enzyme inhibition was calculated as per the below equation. […] Using the below formula, the percent inhibition of each sample was calculated. % Inhibition=Abs. test sample−Abs. background/Abs. solvent blank−Abs. background×100
Using established protocols, the inhibitory potency of MAK01 against both COX-1 and COX-2 enzymes was assessed. This evaluation allowed for the determination of the selectivity of these new compounds. The IC50 values for both COX-1 and COX-2 were then used to calculate the selectivity index of the compound.

Structure (SMILES): CCOC(=O)C(C)(C)C1CC(=O)N(c2ccccc2)C1=O (stereo not drawn) [MAK01, ethyl 2-(2,5-dioxo-1-phenylpyrrolidin-3-yl)-2-methylpropanoate]
- IC50: 449 µM
- COX-2 percent inhibition (62.5 μg/mL): 40%
- inhibition at 62.5 µg/mL (62.5 μg/mL, read-out: COX-2 percent inhibition): 40.1%
- COX-2 percent inhibition (125 μg/mL): 49%
- inhibition at 125 µg/mL (125 μg/mL, read-out: COX-2 percent inhibition): 49.4%
- COX-2 percent inhibition (250 μg/mL): 59%
- inhibition at 250 µg/mL (250 μg/mL, read-out: COX-2 percent inhibition): 58.9%
- COX-2 percent inhibition (500 μg/mL): 68%
- inhibition at 500 µg/mL (500 μg/mL, read-out: COX-2 percent inhibition): 67.8%
- COX-2 percent inhibition (1000 μg/mL): 79%
- inhibition at 1000 µg/mL (1000 μg/mL, read-out: COX-2 percent inhibition): 78.7%
- Selectivity for COX-2 compared to COX-1 (from IC50 values of COX-1 and COX-2): 3 fold
